Common to all, as to assay type: cell-based
The target in one assay is T1, M2 muscarinic receptor (Homo sapiens, UniProt P08172).
T1 construct: expressed in transfected cells; host or cells: CHO (M2-CHO)
T1 sequence (P08172 1-466): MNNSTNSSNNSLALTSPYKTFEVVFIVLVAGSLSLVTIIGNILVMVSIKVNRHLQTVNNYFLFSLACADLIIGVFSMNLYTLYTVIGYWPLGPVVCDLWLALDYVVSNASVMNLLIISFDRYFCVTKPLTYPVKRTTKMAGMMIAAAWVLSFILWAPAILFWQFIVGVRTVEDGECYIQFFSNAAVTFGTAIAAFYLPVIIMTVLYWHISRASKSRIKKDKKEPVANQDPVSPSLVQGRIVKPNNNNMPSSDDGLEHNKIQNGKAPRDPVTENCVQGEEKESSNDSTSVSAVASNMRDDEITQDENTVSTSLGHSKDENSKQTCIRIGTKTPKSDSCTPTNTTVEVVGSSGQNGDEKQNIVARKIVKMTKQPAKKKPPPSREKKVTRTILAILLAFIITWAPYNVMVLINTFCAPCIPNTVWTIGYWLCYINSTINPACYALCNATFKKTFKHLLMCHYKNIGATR
The assay can be described thus: Functional mobilization of intracellular calcium (FLIPR) in CHO cells expressing M2. In a few lines:
(§1)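 Calcium flux is read on FLIPR over 60 sec at 488/540 nm in muscarinic-receptor CHO lines. Antagonist mode adds carbachol at EC80 after 15 min compound preincubation or with simultaneous co-application. Agonist mode adds compound alone. Cells carry Fluo-3 or Calcium 3 dye in probenecid-containing pH 7.4 buffer, 0.5% DMSO final.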

For the next assay, the target named is T2, M4 muscarinic receptor (Homo sapiens, UniProt P08173).
T2 construct: expressed in transfected cells; host or cells: CHO (M4-CHO)
T2 sequence (P08173 1-479): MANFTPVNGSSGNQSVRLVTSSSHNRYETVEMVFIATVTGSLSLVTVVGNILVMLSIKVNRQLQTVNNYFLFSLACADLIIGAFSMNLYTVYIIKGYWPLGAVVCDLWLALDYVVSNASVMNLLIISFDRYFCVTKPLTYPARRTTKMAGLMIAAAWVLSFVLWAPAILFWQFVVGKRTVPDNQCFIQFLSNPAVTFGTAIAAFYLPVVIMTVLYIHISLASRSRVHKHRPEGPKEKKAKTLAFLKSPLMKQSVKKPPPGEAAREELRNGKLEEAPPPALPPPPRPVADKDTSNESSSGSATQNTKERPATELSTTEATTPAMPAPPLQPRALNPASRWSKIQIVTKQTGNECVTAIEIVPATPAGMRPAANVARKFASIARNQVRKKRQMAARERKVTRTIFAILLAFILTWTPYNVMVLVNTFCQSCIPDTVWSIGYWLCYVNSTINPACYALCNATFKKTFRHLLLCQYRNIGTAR
Put plainly: Functional mobilization of intracellular calcium (FLIPR) in CHO cells expressing M4. In a few lines:
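Read-out: FLIPR fluorescence (ex 488, em 540 nm) over 60 s. Recombinant CHO lines are dye-loaded (Fluo-3 AM or Calcium 3) with 1 mM probenecid. For antagonist mode, compound is pre-incubated 15 min, or co-applied, then carbachol is added at 3× EC80 per subtype.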

The next assay has as its target T3, M3 muscarinic receptor (Homo sapiens, UniProt P20309).
T3 construct: expressed in transfected cells; host or cells: CHO (M3-CHO)
Put plainly: Functional mobilization of intracellular calcium (FLIPR) in CHO cells expressing M3. In a few lines: as §1

In the next assay the target is T4, M1 muscarinic receptor (Homo sapiens, UniProt P11229).
T4 construct: expressed in transfected cells; host or cells: CHO (M1-CHO)
T4 sequence (P11229 1-460): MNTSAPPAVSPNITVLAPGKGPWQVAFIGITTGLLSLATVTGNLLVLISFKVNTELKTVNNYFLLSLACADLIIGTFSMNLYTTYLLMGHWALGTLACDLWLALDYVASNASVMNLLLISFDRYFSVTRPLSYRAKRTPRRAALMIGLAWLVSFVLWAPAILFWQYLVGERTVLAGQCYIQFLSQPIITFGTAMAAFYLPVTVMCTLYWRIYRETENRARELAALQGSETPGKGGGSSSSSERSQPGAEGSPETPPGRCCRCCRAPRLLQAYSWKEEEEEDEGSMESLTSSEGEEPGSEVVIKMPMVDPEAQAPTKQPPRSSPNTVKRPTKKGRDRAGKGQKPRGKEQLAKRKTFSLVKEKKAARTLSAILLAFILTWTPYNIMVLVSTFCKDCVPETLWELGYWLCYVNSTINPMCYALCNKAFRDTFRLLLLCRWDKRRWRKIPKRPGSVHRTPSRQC
Put plainly: Functional mobilization of intracellular calcium (FLIPR) in CHO cells expressing M1. An outline of the steps: as §1

Where [1] appears, read: CHO, 100% efficacy = maximum response obtained with the Carbachol control.

T3 sequence (P20309 whole entry): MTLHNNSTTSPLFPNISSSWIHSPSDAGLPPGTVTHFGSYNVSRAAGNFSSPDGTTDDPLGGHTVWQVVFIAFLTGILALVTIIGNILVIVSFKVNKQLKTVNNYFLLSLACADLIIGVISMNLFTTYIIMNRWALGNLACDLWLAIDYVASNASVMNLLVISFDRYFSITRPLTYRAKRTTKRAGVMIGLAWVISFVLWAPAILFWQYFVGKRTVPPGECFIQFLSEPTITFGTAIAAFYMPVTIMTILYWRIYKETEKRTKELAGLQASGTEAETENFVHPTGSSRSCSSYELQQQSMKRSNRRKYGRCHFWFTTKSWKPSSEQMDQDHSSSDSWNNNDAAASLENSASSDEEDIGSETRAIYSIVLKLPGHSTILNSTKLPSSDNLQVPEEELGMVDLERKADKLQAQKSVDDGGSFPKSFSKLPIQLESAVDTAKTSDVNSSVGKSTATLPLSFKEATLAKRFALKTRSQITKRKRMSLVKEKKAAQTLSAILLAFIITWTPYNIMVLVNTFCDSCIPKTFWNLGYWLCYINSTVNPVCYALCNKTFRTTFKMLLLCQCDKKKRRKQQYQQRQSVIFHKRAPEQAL

Consider `C=CCCCN1CCC2(CC1)C[C@H](NC(=O)N1CCCC1)c1ccccc12` [compound 301], for which the “M2 Activity” value at M2 muscarinic receptor (CHO cells expressing M2, FLIPR calcium assay) is listed as “+ (activity was measured to be greater than 5.0 μM)”. Besides, the maximum response (Emax) at M2 muscarinic receptor (setting [1]), on M4 muscarinic receptor (setting [1]), at M3 muscarinic receptor (setting [1]) and on M1 muscarinic receptor (setting [1]) was less than 25% throughout. The “M4 Activity” value at M4 muscarinic receptor (CHO cells expressing M4, FLIPR calcium assay) is reported as “+ (activity was measured to be greater than 5.0 μM)”. On M3 muscarinic receptor (CHO cells expressing M3, FLIPR calcium assay), the “M3 Activity” value is “+ (activity was measured to be greater than 5.0 μM)”. Moreover, the “M1 Activity” value at M1 muscarinic receptor (CHO cells expressing M1, FLIPR calcium assay) is listed as “+ (activity was measured to be greater than 5.0 μM)”.

The values above are taken from patent publication US8003660B2, “Modulators of muscarinic receptors” (Vertex Pharmaceuticals Incorporated, priority 2006, dated 2011).
